Assay results taken from patent US20240181081A1, “Compositions and Methods for Treatment of Myotonic Dystrophy Type 1 with CRISPR/SACAS9” (Vertex Pharmaceuticals Incorporated, priority 2021, published 2024).

Columns and labels:
[1] = tested on: CTG repeat expansion in the 3′ UTR of human DMPK gene; assay: DOUBLE-cut screening: CTG repeat excision by loss-of-signal ddPCR in primary DM1 patient myoblasts; assay type: cell-based; conditions: sgRNA pair RNP, mean of upstream and downstream ddPCR assays; for % of CTG repeat excision efficiency by ddPCR (DNA-PKi): 3 μM Compound 6 for 48 hrs; for % of CTG repeat excision efficiency by ddPCR (Vehicle): DMSO 48 hrs
Method in brief: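 Paired upstream/downstream sgRNAs, each as RNP with recombinant SaCas9 (20 pmol protein:60 pmol sgRNA), mixed 1:1 and nucleofected into primary DM1 myoblasts; cells then given DMSO or 3 μM DNA-PKi Compound 6 for 48 hrs. Genomic DNA taken 72 hrs post-nucleofection; excision is mean of upstream and downstream loss-of-signal ddPCR, normalized to DMPK exon 1 reference.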

[2] = tested on: CUG RNA foci in primary DM1 patient myoblasts; assay: DOUBLE-cut screening: FISH staining of RNA foci in primary DM1 patient myoblasts; assay type: cell-based, human; conditions: sgRNA pair RNP, 72 hrs post nucleofection; for % of CUG foci free nuclei (DNA-PKi): 3 μM Compound 6 for 48 hrs; for % of CUG foci free nuclei (Vehicle): DMSO 48 hrs
Method in brief: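 Primary DM1 patient myoblasts nucleofected with paired upstream/downstream sgRNA–SaCas9 RNPs (20 pmol protein, 60 pmol sgRNA each), then treated 48 hrs with DMSO or 3 μM DNA-PK inhibitor. At 72 hrs post nucleofection, CUG foci stained by Cy3-PNA(CAG)5 FISH with MBNL1 co-staining and quantified by high-content confocal imaging.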

| Substance | % of CTG repeat excision efficiency by ddPCR (DNA-PKi) [1] | % of CTG repeat excision efficiency by ddPCR (Vehicle) [1] | % of CUG foci free nuclei (DNA-PKi) [2] | % of CUG foci free nuclei (Vehicle) [2] |
| --- | --- | --- | --- | --- |
| SaU7 + SaD12: SaCas9 sgRNA pair, SEQ ID NOs: 7 and 20 (guide 1 CGCGGCCGGCGAACGGGGCTCG; guide 2 TCAGTGCATCCAAAACGTGGAT; listed as DNA, chemistry not fully specified) | 62.84% | 39.71% | 86.06% | 66.41% |
| SaU7 + SaD15: SaCas9 sgRNA pair, SEQ ID NOs: 7 and 23 (guide 1 CGCGGCCGGCGAACGGGGCTCG; guide 2 GACAATAAATACCGAGGAATGT; listed as DNA, chemistry not fully specified) | 66.66% | 36.65% | 89.69% | 64.62% |
| SaU7 + SaD17: SaCas9 sgRNA pair, SEQ ID NOs: 7 and 25 (guide 1 CGCGGCCGGCGAACGGGGCTCG; guide 2 TTTATTCGCGAGGGTCGGGGGT; listed as DNA, chemistry not fully specified) | 55.97% | 27.41% | 75.53% | 36.12% |
| SaU7 + SaD18: SaCas9 sgRNA pair, SEQ ID NOs: 7 and 26 (guide 1 CGCGGCCGGCGAACGGGGCTCG; guide 2 GGGCCTTTTATTCGCGAGGGTC; listed as DNA, chemistry not fully specified) | 48.08% | 19.71% | 73.07% | 23.22% |
| SaU7 + SaD19: SaCas9 sgRNA pair, SEQ ID NOs: 7 and 27 (guide 1 CGCGGCCGGCGAACGGGGCTCG; guide 2 AGGACCCCCACCCCCGACCCTC; listed as DNA, chemistry not fully specified) | 56.22% | 28.45% | 81.47% | 42.75% |
| SaU7 +SaD3: SaCas9 sgRNA pair, SEQ ID NOs: 7 and 11 (guide 1 CGCGGCCGGCGAACGGGGCTCG; guide 2 CAACGATAGGTGGGGGTGCGTG; listed as DNA, chemistry not fully specified) | 61.82% | 41.26% | 80.45% | 39.24% |
| SaU7 +SaD11: SaCas9 sgRNA pair, SEQ ID NOs: 7 and 19 (guide 1 CGCGGCCGGCGAACGGGGCTCG; guide 2 CAAAACGTGGATTGGGGTTGTT; listed as DNA, chemistry not fully specified) | 51.90% | 25.10% | 73.38% | 36.96% |
| SaU7 +SaD13: SaCas9 sgRNA pair, SEQ ID NOs: 7 and 21 (guide 1 CGCGGCCGGCGAACGGGGCTCG; guide 2 CCCAACAACCCCAATCCACGTT; listed as DNA, chemistry not fully specified) | 55.97% | 25.62% | 78.52% | 28.69% |
| SaU7 +SaD20: SaCas9 sgRNA pair, SEQ ID NOs: 7 and 28 (guide 1 CGCGGCCGGCGAACGGGGCTCG; guide 2 AGATGGAGGGCCTTTTATTCGC; listed as DNA, chemistry not fully specified) | 67.93% | 39.72% | 83.24% | 63.33% |
| SaU8 + SaD5: SaCas9 sgRNA pair, SEQ ID NOs: 8 and 13 (guide 1 GGCTCGAAGGGTCCTTGTAGCC; guide 2 GGGTTTGGCAAAAGCAAATTTC; listed as DNA, chemistry not fully specified) | 58.77% | 49.47% | 84.28% | 72.77% |
| SaU8 + SaD6: SaCas9 sgRNA pair, SEQ ID NOs: 8 and 14 (guide 1 GGCTCGAAGGGTCCTTGTAGCC; guide 2 CTTTTGCCAAACCCGCTTTTTC; listed as DNA, chemistry not fully specified) | 40.19% | 23.57% | 65.28% | 32.43% |
| SaU8 + SaD7: SaCas9 sgRNA pair, SEQ ID NOs: 8 and 15 (guide 1 GGCTCGAAGGGTCCTTGTAGCC; guide 2 GGGGCGCGGGATCCCCGAAAAA; listed as DNA, chemistry not fully specified) | 53.42% | 38.19% | 82.90% | 52.92% |
| SaU8 + SaD12: SaCas9 sgRNA pair, SEQ ID NOs: 8 and 20 (guide 1 GGCTCGAAGGGTCCTTGTAGCC; guide 2 TCAGTGCATCCAAAACGTGGAT; listed as DNA, chemistry not fully specified) | 55.46% | 36.64% | 85.37% | 76.92% |
| SaU8 + SaD15: SaCas9 sgRNA pair, SEQ ID NOs: 8 and 23 (guide 1 GGCTCGAAGGGTCCTTGTAGCC; guide 2 GACAATAAATACCGAGGAATGT; listed as DNA, chemistry not fully specified) | 57.24% | 39.47% | 86.21% | 76.50% |
| SaU8 + SaD17: SaCas9 sgRNA pair, SEQ ID NOs: 8 and 25 (guide 1 GGCTCGAAGGGTCCTTGTAGCC; guide 2 TTTATTCGCGAGGGTCGGGGGT; listed as DNA, chemistry not fully specified) | 49.09% | 30.50% | 79.35% | 52.34% |
| SaU8 + SaD18: SaCas9 sgRNA pair, SEQ ID NOs: 8 and 26 (guide 1 GGCTCGAAGGGTCCTTGTAGCC; guide 2 GGGCCTTTTATTCGCGAGGGTC; listed as DNA, chemistry not fully specified) | 44.51% | 18.17% | 70.76% | 36.66% |
| SaU8 + SaD19: SaCas9 sgRNA pair, SEQ ID NOs: 8 and 27 (guide 1 GGCTCGAAGGGTCCTTGTAGCC; guide 2 AGGACCCCCACCCCCGACCCTC; listed as DNA, chemistry not fully specified) | 46.04% | 28.95% | 83.45% | 61.41% |
